The text below walks through data of patent publication US6326395A, “Antifungal activity of dicationic molecules” (priority 1999, dated 2001).

The structures appear in SMILES notation. Structures can show the parent of a compound that is named as a salt.

In assay [1] the test system is Candida albicans. Description: in vitro antifungal susceptibility testing (MIC, MFC; broth macrodilution), Tables 1-7. It is filed as cell-based.
In assay [2] the test system is Cryptococcus neoformans. The description is as above. It is filed as cell-based.
For assay [3], the system named is Cryptococcus neoformans H99. The experiment in a line: antifungal susceptibility testing (MIC, MFC), extended spectrum. It is filed as cell-based, C. neoformans var. neoformans. As to conditions: Cryptococcus neoformans H99. From the text: Antifungal susceptibility testing for compounds set forth in Examples 1-20 is discussed hereinbelow. The fungi that were employed included two reference strains, C. neoformans var. neoformans H99 and C. albicans A39 and the following clinical isolates: (1) two strains of fluconazole-resistant C. neoformans var. neoformans (135.95 and 114.96); (2) two strains of C. neoformans var. gattii (119.95 and 114.95); (3) two strains of fluconazole-resistant C. albicans (102.96 and 103.96); and (4) one strain each of Torulopsis glabrata (142.91), Candida parapsilosis (111.96), Candida krusei (132.91), C. tropicalis (110.96), Candida lusitaniae (111.92), Fusarium solani (152.89), Aspergillus fumigatus (168.95), and Aspergillus flavus (112.96). Antifungal susceptibility testing was performed using an RPMI-1640 medium (Sigma Chemical Co., St. Louis, Mo.) with glutamine, without sodium bicarbonate, and buffered at pH 7.0 with 0.165 M morpholine-propanesulfonic acid (MOPS).
In vitro susceptibility testing in the form of Minimum Inhibitory Concentration (MIC) experiments were performed using the broth macrodilution method according to the recommendations of the National Committee for Clinical Laboratory Standards (see 1995 manual). […] Briefly, this procedure specifies an inoculum grown at 35° C. and adjusted to a concentration of 0.5-2.5×10^3 CFU/ml with an incubation of the test performed at 35° C. and reading at 48 hours for all yeasts except for C. neoformans which is interpreted at 72 hr.
Minimum Fungicidal Concentration (MFC) experiments were adapted from a method by McGinnis (McGinnis, M. R., (1980) "Susceptibility testing and bioassay procedure", p. 431, Academic Press, Inc., New York). […] The lowest drug concentration that yielded three or fewer yeasts colonies was recorded as the MFC. […]
Minimum Fungicidal Concentration (MFC) experiments were adapted from a method by McGinnis (McGinnis, M. R., (1980) "Susceptibility testing and bioassay procedure", p.431, Academic Press, Inc., New York). […] The lowest drug concentration that yielded 3 or fewer yeasts colonies was recorded as the MFC. […]

Turning to `CC(C)NC(=N)c1ccc2nc(-c3ccc4c(c3)Cc3cc(-c5nc6ccc(C(=N)NC(C)C)cc6[nH]5)ccc3-4)[nH]c2c1` [Compound 57, 2,7-Bis[2-(5-N-isopropylamidino)benzimidazoyl]fluorene hydrochloride], the MIC in assay [1] (35° C., reading at 48 hours, read-out: MIC80 (Minimum inhibitory concentration 80%)) amounted to 0.78 µg/mL; in assay [2] (35° C., 72 hr, read-out: MIC80 (Minimum inhibitory concentration 80%)), 0.78 µg/mL; in assay [3] (72 hr, read-out: MIC80), 0.78 µg/mL. The MFC in assay [1] (three or fewer colonies, read-out: MFC (Minimum fungicidal concentration)) amounted to 1.56 µg/mL; in assay [2] (Tables 2-7, three or fewer colonies, read-out: MFC (Minimum fungicidal concentration)), 0.78 µg/mL; in assay [3], 0.78 µg/mL.
